# According to patent US12351570B2 (MERCK PATENT GMBH, priority 2018, dated 2025):
# Test system: MDA-MB-231 cells
# Assay: Extracellular lactate production inhibition after 4 h, MDA-MB-231
# Conditions: Homo sapiens, MDA-MB-231
# Protocol: Extracellular Lactate Production Inhibition after 4 h
# Cells were plated in growth media supplemented with 10% FBS, followed by overnight recovery at 37° C., 5% CO2. […] Plates were then moved for 4 h incubation at 37° C., 5% CO2 with subsequent 20 μl media transfer to empty 384-well transparent plates. […] Plates were short-spun and measured kinetically in absorbance mode (530 nm, 12 min measurement time with 2-minute intervals between subsequent readouts at 30° C.). Differences in the signal between T8 min and T0min were normalized to vehicle (cells w/ 0.25% DMSO) and quasi-positive (LCIS buffer w/ 0.25% DMSO) controls and plotted against logarithmically-transformed test compound concentrations with fitting the 4-parameter model in GraphPad Prism software.
row,IC50 [nM],SMILES
1,1 to 10,"CCc1ccc2cccnc2c1S(=O)(=O)Nc1ccccc1C#Cc1cnc(C(=O)O)cc1OC [Compound 369, 5-{2-[2-(7-ethylquinoline-8-sulfonamido)phenyl]ethynyl}-4-methoxypyridine-2-carboxylic acid]"
2,100 to 1000,"COc1c(C#Cc2ccccc2NS(=O)(=O)c2ccc(OC)c3cccnc23)cnc(C(=O)O)c1C [Compound 370, 4-Methoxy-5-[2-(5-methoxy-quinoline-8-sulfonylamino)-phenylethynyl]-3-methyl-pyridine-2-carboxylic acid]"
3,1 to 10,"CCOc1ccc(S(=O)(=O)Nc2ccccc2C#Cc2cnc(C(=O)O)c(CC)c2)c2ncccc12 [Compound 371, 5-[2-(5-Ethoxy-quinoline-8-sulfonylamino)-phenylethynyl]-3-ethyl-pyridine-2-carboxylic acid]"
4,1 to 10,"COc1cc(C(=O)O)ncc1C#Cc1ccccc1NS(=O)(=O)c1c(C)cc(OC)c2cccnc12 [Compound 372, 4-Methoxy-5-[2-(5-methoxy-7-methyl-quinoline-8-sulfonylamino)-phenylethynyl]-pyridine-2-carboxylic acid]"
5,1000 to 100000,"COc1cc(C(=O)N(C)C)ncc1C#Cc1cc(Cl)ccc1NS(=O)(=O)c1ccc(OC)c2cccnc12 [Compound 373, 5-{2-[5-chloro-2-(5-methoxyquinoline-8-sulfonamido)phenyl]ethynyl}-4-methoxy-N,N-dimethylpyridine-2-carboxamide]"
6,1 to 10,"CCc1cc(C#Cc2ccccc2NS(=O)(=O)c2c(CC)ccc3cccnc23)cnc1C(=O)O [Compound 375, 3-Ethyl-5-[2-(7-ethyl-quinoline-8-sulfonylamino)-phenylethynyl]-pyridine-2-carboxylic acid]"
7,1 to 10,"CCNc1cc(C#Cc2ccccc2NS(=O)(=O)c2ccc(OC)c3cccnc23)cnc1C(=O)O [Compound 376, 3-(ethylamino)-5-{2-[2-(5-methoxyquinoline-8-sulfonamido)phenyl]ethynyl}pyridine-2-carboxylic acid]"
8,10 to 100,"CNc1cc(C#Cc2ccccc2NS(=O)(=O)c2ccc(OC)c(C)c2C)cnc1C(=O)O [Compound 378, 5-{2-[2-(4-methoxy-2,3-dimethyl-benzenesulfonamido)phenyl]ethynyl}-3-(methylamino)pyridine-2-carboxylic acid]"
9,10 to 100,"CCNc1cc(C#Cc2ccccc2NS(=O)(=O)c2ccc(OC)c(C)c2C)cnc1C(=O)O [Compound 379, 3-(ethylamino)-5-{2-[2-(4-methoxy-2,3-dimethylbenzenesulfonamido)phenyl]ethynyl}pyridine-2-carboxylic acid]"
10,10 to 100,"Cc1cc(C)c2cccnc2c1S(=O)(=O)Nc1ccccc1C#Cc1ccc(C(=O)O)nc1 [Compound 381, 5-{2-[2-(5,7-dimethylquinoline-8-sulfonamido)phenyl]ethynyl}pyridine-2-carboxylic acid]"
11,10 to 100,"Cc1cc(C#Cc2ccccc2NS(=O)(=O)c2ccc(OC(F)(F)F)c3cccnc23)cnc1C(=O)O [Compound 382, 3-Methyl-5-[2-(5-trifluoromethoxy-quinoline-8-sulfonylamino)-phenylethynyl]-pyridine-2-carboxylic acid]"
12,1 to 10,"COc1ccc(S(=O)(=O)Nc2ccc(C)cc2C#Cc2ccc(C(=O)O)nc2)c2ncccc12 [Compound 383, 5-[2-(5-Methoxy-quinoline-8-sulfonylamino)-5-methyl-phenylethynyl]-pyridine-2-carboxylic acid]"
13,10 to 100,"O=C(O)c1ccc(C#Cc2ccccc2NS(=O)(=O)c2ccc(OC(F)(F)F)c3cccnc23)cn1 [Compound 384, 5-[2-(5-Trifluoromethoxy-quinoline-8-sulfonylamino)-phenylethynyl]-pyridine-2-carboxylic acid]"
14,1000 to 100000,"Cc1ccc2cccnc2c1S(=O)(=O)Nc1ccccc1C#Cc1ccc(C(=O)N2CCCCC2)nc1 [Compound 385, 7-Methyl-quinoline-8-sulfonic acid {2-[6-(piperidine-1-carbonyl)-pyridin-3-ylethynyl]-phenyl}-amide]"
15,1000 to 100000,"COc1ccc(S(=O)(=O)Nc2ccccc2C#Cc2ccc(C(=O)N3CCCC3)nc2)c2ncccc12 [Compound 386, 5-Methoxy-quinoline-8-sulfonic acid {2-[6-(pyrrolidine-1-carbonyl)-pyridin-3-ylethynyl]-phenyl}-amide]"
16,10 to 100,"COc1ccc(S(=O)(=O)Nc2ccc(Cl)cc2C#Cc2ccc(C(=O)O)nc2)c(C)c1C [Compound 387, 5-[5-Chloro-2-(4-methoxy-2,3-dimethyl-benzenesulfonylamino)-phenylethynyl]-pyridine-2-carboxylic acid]"
17,10 to 100,"COc1ccc(S(=O)(=O)Nc2ccc(Cl)cc2C#Cc2cnc(C(=O)O)cc2OC)cc1 [Compound 388, 5-[5-Chloro-2-(4-methoxy-benzenesulfonylamino)-phenylethynyl]-4-methoxy-pyridine-2-carboxylic acid]"

row,IC50 [nM],SMILES
1,1 to 10,"COc1cc(C(=O)O)ncc1C#Cc1ccccc1NS(=O)(=O)c1ccc(OC(F)(F)F)c2cccnc12 [Compound 389, 4-Methoxy-5-[2-(5-trifluoromethoxy-quinoline-8-sulfonylamino)-phenylethynyl]-pyridine-2-carboxylic acid]"
2,100 to 1000,"COc1ccc(S(=O)(=O)Nc2ccc(Cl)cc2C#Cc2ccc(C(=O)O)nc2)cc1 [Compound 390, 5-[5-Chloro-2-(4-methoxy-benzenesulfonylamino)-phenylethynyl]-pyridine-2-carboxylic acid]"
3,100 to 1000,"COc1ccc(S(=O)(=O)Nc2ccccc2C#Cc2cnc(C(=O)O)cc2OC)cc1 [Compound 391, 4-Methoxy-5-[2-(4-methoxy-benzenesulfonylamino)-phenylethynyl]-pyridine-2-carboxylic acid]"
4,100 to 1000,"COc1ccc(S(=O)(=O)Nc2ccccc2C#Cc2ccc(C(=O)NC(C)C)nc2)c2ncccc12 [Compound 392, 5-[2-(5-Methoxy-quinoline-8-sulfonylamino)-phenylethynyl]-pyridine-2-carboxylic acid isopropylamide]"
5,1 to 10,"Cc1ccc(NS(=O)(=O)c2c(C)ccc3cccnc23)c(C#Cc2ccc(C(=O)O)nc2)c1 [Compound 393, 5-[5-Methyl-2-(7-methyl-quinoline-8-sulfonylamino)-phenylethynyl]-pyridine-2-carboxylic acid]"
6,1 to 10,"CCNc1cc(C#Cc2ccccc2NS(=O)(=O)c2cccc3cccnc23)cnc1C(=O)O [Compound 394, 3-(ethylamino)-5-{2-[2-(quinoline-8-sulfonamido)phenyl]ethynyl}pyridine-2-carboxylic acid]"
7,100 to 1000,"COc1ccc(S(=O)(=O)Nc2ccccc2C#Cc2cnc(C(=O)O)c3ccccc23)c(C)c1C [Compound 395, 4-[2-(4-Methoxy-2,3-dimethyl-benzenesulfonylamino)-phenylethynyl]-isoquinoline-1-carboxylic acid]"
8,1 to 10,"Cc1ccc2cccnc2c1S(=O)(=O)Nc1ccccc1C#Cc1ccc(C(=O)OCC(O)CO)nc1 (centres unmarked) [Compound 396, 2,3-dihydroxypropyl 5-{2-[2-(7-methylquinoline-8-sulfonamido)phenyl]ethynyl}pyridine-2-carboxylate]"
9,10 to 100,"COc1ccc(NS(=O)(=O)c2ccc(OC)c3cccnc23)c(C#Cc2ccc(C(=O)O)nc2)c1 [Compound 397, 5-[5-Methoxy-2-(5-methoxy-quinoline-8-sulfonylamino)-phenylethynyl]-pyridine-2-carboxylic acid]"
10,10 to 100,"COc1ccc(S(=O)(=O)Nc2ccc(Br)cc2C#Cc2cnc(C(=O)O)c3ccccc23)c(C)c1C [Compound 398, 4-{2-[5-bromo-2-(4-methoxy-2,3-dimethylbenzenesulfonamido)phenyl]ethynyl}isoquinoline-1-carboxylic acid]"
11,100 to 1000,"Cc1ccc2cccnc2c1S(=O)(=O)Nc1ccccc1C#Cc1cnc(C(=O)O)c(CO)c1 [Compound 399, 3-(hydroxymethyl)-5-{2-[2-(7-methylquinoline-8-sulfonamido)phenyl]ethynyl}pyridine-2-carboxylic acid]"
12,10 to 100,"COc1ccc(S(=O)(=O)Nc2ccc(Cl)cc2C#Cc2cnc(C(=O)O)c3ccccc23)c(C)c1C [Compound 400, 4-[5-Chloro-2-(4-methoxy-2,3-dimethyl-benzenesulfonylamino)-phenylethynyl]-isoquinoline-1-carboxylic acid]"
13,10 to 100,"Cc1ccc2cccnc2c1S(=O)(=O)Nc1ccccc1C#Cc1cnc2c(c1)COC2=O [Compound 401, 7-methyl-N-[2-(2-{7-oxo-5H,7H-furo[3,4-b]pyridin-3-yl}ethynyl)phenyl]quinoline-8-sulfonamide]"
14,10 to 100,"COc1ccc(S(=O)(=O)Nc2ccccc2C#Cc2cnc(C(=O)O)c(N)c2)c(C)c1C [Compound 402, 3-amino-5-{2-[2-(4-methoxy-2,3-dimethylbenzenesulfonamido)phenyl]ethynyl}pyridine-2-carboxylic acid]"
15,10 to 100,"CNc1cc(C#Cc2cc(Cl)ccc2NS(=O)(=O)c2ccc(OC)c(C)c2C)cnc1C(=O)O [Compound 403, 5-{2-[5-chloro-2-(4-methoxy-2,3-dimethylbenzenesulfonamido)phenyl]ethynyl}-3-(methylamino)pyridine-2-carboxylic acid]"
16,100 to 1000,"Cc1ccc2cccnc2c1S(=O)(=O)Nc1ccccc1C#Cc1ccc(C(=O)OCC2COC(C)(C)O2)nc1 (centres unmarked) [Compound 404, (2,2-dimethyl-1,3-dioxolan-4-yl)methyl 5-{2-[2-(7-methylquinoline-8-sulfonamido)phenyl]ethynyl}pyridine-2-carboxylate]"
17,100 to 1000,"COCCOC(=O)c1cc(OC)c(C#Cc2ccccc2NS(=O)(=O)c2ccc(OC)c3cccnc23)cn1 [Compound 405, 2-methoxyethyl 4-methoxy-5-{2-[2-(5-methoxyquinoline-8-sulfonamido)phenyl]ethynyl}pyridine-2-carboxylate]"

row,SMILES,IC50 [nM]
1,"Cc1ccc(S(=O)(=O)Nc2ccccc2C#Cc2ccc(C(=O)O)nc2)c2ncccc12 [Compound 374, 5-{2-[2-(5-methylquinoline-8-sulfonamido)phenyl]ethynyl}pyridine-2-carboxylic acid]",100 to 1000
